From patent EP0346759A2, “Cholestadiene derivatives, process for their preparation, and their use as medicines with a HMG-CoA reductase-inhibiting activity” (HOECHST AKTIENGESELLSCHAFT, priority 1988, dated 1989)

Test system: Cholesterin-Biosynthese
Assay: Inhibition of cholesterol biosynthesis in cell culture by 14C-precursor (14C sodium acetate) incorporation into cholesterol
Assay type: cell-based
Details: HEP-G2-Zellen, 1 % DMSO
From the text: Prüfung auf Cholesterin-Biosynthese-Hemmung In Zellkulturen durch ^14C-Präkursoreinbau In Cholesterin.
Monolayers von HEP G2-Zellen in lipoproteinfreiem Nährmedium wurden mit entsprechenden Konzentrationen der Prüfsubstanzen 1 Stunde vorinkubiert; nach Zugabe des ^14C-markierten Präkursors '^4C-Natriumacetat wurde die Inkubation für 3 Stunden fortgesetzt. Danach wurde ein Teil der Zellen bei vorheriger Zugabe eines internen Standards von ^3H-Cholesterin alkalisch verseift. Die Lipide der verseiften Zellen wurden mit Chloroform-Methanol extrahiert. Dieses Lipidgemisch wurde nach Zusatz von Träger-Cholesterin präparativ dünnschichtchromatographisch getrennt, die Cholesterin-Bande nach dem Sichtbarmachen mit Jod-Dämpfen isoliert und die aus dem ^14C-Präkursor gebildete Menge ^14C-Cholesterins szintigraphisch bestimmt. In einem aliquoten Teil der Zellen wurde Zellprotein bestimmt, sodaß die in der Zeiteinheit/mg Zellprotein aus ^14C-Präkursor gebildete Menge ^14C-Cholesterins berechnet werden kann. Zum Vergleich für die Hemmwirkung eines zugesetzten Prüfpräparates diente die Lösungsmittelkontrolle, sodaß direkt die Hemmung der Cholesterin-Biosynthese bei einer bestimmten molaren Konzentration des Prüfpräparates im Medium angegeben werden kann. In aliquoten Anteilen der Zellkultur wurde die Intaktheit der Zellkulturen und die fehlende Zellschädigung durch Präparate-Einwirkung morphologisch (Lichtmikroskop) beurteilt.
Cholesterol-Biosynthese-Hemmung Zellkultur: HEP-G2-Zellen Lösungsmittel-Endkonzentration: 1 % DMSO

**Q.** For “3ß-Hydroxy-chola-5,23t-dien-24-carbonsäure-methylester [Beispiel 9]”, which IC50 (Cholesterol-Biosynthese-Hemmung) is on record?
**A.** ~500 nM

**Q.** And the “Acetateinbau in Cholesterin im Vergleich zur Kontrolle” value (from here on “Acetateinbau”) (Präparat-Konzentration 1,0 x 10^-6 Mol/1, 1 µM)?
**A.** 52%

**Q.** And the “Acetateinbau” value (Präparat-Konzentration 1,0 x 10^-7 Mol/1, 0.1 µM)?
**A.** 56%

**Q.** And the “Acetateinbau” value (Präparat-Konzentration 2,5 x 10^-4 Mol/1, 250 µM)?
**A.** 6%

**Q.** And the “Acetateinbau” value (Präparat-Konzentration 2,5 x 10^-5 Mol/1, 25 µM)?
**A.** 17%
